Reference: patent US20170000132A1, “BENZOXABOROLE FUNGICIDES” (SYNGENTA PARTICIPATIONS AG, priority 2013, published 2017)

Key:
[1] = system: Puccinia recondita; assay: Puccinia recondita / wheat plants, spray chamber; assay type: in vivo; conditions: 20 ppm; 1 week old wheat plants cv. Arina, sprayed 2 days before inoculation, assessed 10 days after inoculation
Protocol: Fungicidal Activity Against Puccinia recondita/Wheat 1 week old wheat plants cv. Arina were treated with the formulated test compound in a spray chamber. Two days after application wheat plants were inoculated by spraying a spore suspension (1×105 uredospores/ml) on the test plants. After an incubation period of 1 day at […] and 95% r. h. plants were kept for 9 days at […] and 60% r.h. in a greenhouse. The disease incidence was assessed 10 days after inoculation.

[2] = system: Giberella zeae (Fusarium graminearum); assay type: in vivo; conditions: 200 ppm; wheat spikelets, preventative, assessed 6 dpi; compared to untreated control
[3] = system: Monographella nivale (Microdochium nivale); assay: Monographella nivale / wheat pouch test with infected seeds; assay type: in vivo, M. nivale; conditions: 60 ppm; infected wheat seeds cv. Arina in pouch, 4 weeks after sowing; compared to untreated control
Protocol: Fungicidal Activity Against Monographella nivale (Microdochium nivale)/Wheat
Formulated test compound is applied into a pouch which was previously equipped with a filter paper. After the application wheat seeds cv. Arina infected with M. nivale are sown into the upper fault of the filter paper. The pouches are then incubated for 7 days in the dark at 7° C./5° C. (day/night) and 80% r. h. After 1 week light is supplied at the same temperature cycle. Another two weeks later plants were transferred to 17° C./16° C. (day/night) and 80% r. H. The disease incidence is assessed 4 weeks after sowing.

[4] = system: Phytophthora infestans; assay type: in vivo; conditions: 200 ppm; tomato leaf disks, preventative; compared to untreated control

SMILES: OB1OCc2cc(Cl)c(C=NOCC=C(Cl)Cl)cc21 (single isomer, unassigned) [Compound 50]
- disease control (disease incidence) [1]: at least 80%

SMILES: COC(=O)Cc1ccccc1CON=Cc1cc2c(cc1Cl)COB2O (single isomer, unassigned) [Compound 59]
- disease control [2]: at least 80%

SMILES: CCOC(=O)CNN=Cc1cc2c(cc1Cl)COB2O (single isomer, unassigned) [Compound 70]
- disease control (disease incidence) [3]: at least 80%

SMILES: CNC(=S)NN=Cc1cc(Cl)cc2c1B(O)OC2 (single isomer, unassigned) [Compound 224]
- disease control [4]: at least 80%
